Assay results published in ChEMBL document CHEMBL1154702, “Enhancement of the antimalarial activity of ciprofloxacin using a double prodrug/bioorganometallic approach” (J Med Chem, 2009).

How the values were obtained:
[1] = Therapeutic index, ratio of IC50 for concanavalin-stimulated BALB/c mice (Mus musculus) splenocytes to IC50 for Plasmodium falciparum W2 after 48 hrs; conditions: read-out: Ratio IC50
Plasmodium falciparum [2] = test: Antimalarial activity against chloroquine-sensitive Plasmodium falciparum IMTVo1 infected in erythrocytes after 48 hrs by [3H]hypoxanthine incorporation assay; type: functional, organism-based
Plasmodium falciparum [3] = test: Antimalarial activity against chloroquine-resistant Plasmodium falciparum W2 infected in erythrocytes after 96 hrs by [3H]hypoxanthine incorporation assay; type: functional, organism-based
Plasmodium falciparum [4] = test: Antimalarial activity against chloroquine-sensitive Plasmodium falciparum IMTL1 infected in erythrocytes after 48 hrs by [3H]hypoxanthine incorporation assay; type: functional, organism-based
Plasmodium falciparum [5] = test: Antimalarial activity against chloroquine-resistant Plasmodium falciparum W2 infected in erythrocytes after 48 hrs by [3H]hypoxanthine incorporation assay; type: functional, organism-based
Plasmodium falciparum [6] = test: Antimalarial activity against chloroquine-sensitive Plasmodium falciparum PA infected in erythrocytes after 48 hrs by [3H]hypoxanthine incorporation assay; type: functional, organism-based
[7] = Therapeutic index, ratio of IC50 for concanavalin-stimulated BALB/c mice (Mus musculus) splenocytes to IC50 for Plasmodium falciparum 3D7; conditions: read-out: Ratio IC50
[8] = Cytotoxicity against concanavalin-stimulated BALB/c mouse splenocytes after 72 hrs by resazurin dye reduction method; type: cell-based; conditions: Splenocyte
Plasmodium falciparum [9] = test: Antimalarial activity against chloroquine-sensitive Plasmodium falciparum IMT10500 infected in erythrocytes after 48 hrs by [3H]hypoxanthine incorporation assay; type: functional, organism-based
Plasmodium falciparum [10] = test: Antimalarial activity against chloroquine-sensitive Plasmodium falciparum 3D7 infected in erythrocytes after 48 hrs by [3H]hypoxanthine incorporation assay; type: functional, organism-based
Plasmodium falciparum [11] = test: Antimalarial activity against chloroquine-sensitive Plasmodium falciparum FCR3 infected in erythrocytes after 48 hrs by [3H]hypoxanthine incorporation assay; type: functional, cell-based; conditions: FCR-3/Gambia
Plasmodium falciparum [12] = test: Antimalarial activity against […] Plasmodium falciparum IMT K2 infected in erythrocytes after 48 hrs by [3H]hypoxanthine incorporation assay; type: functional, organism-based
Plasmodium falciparum [13] = test: Antimalarial activity against chloroquine-sensitive Plasmodium falciparum 3D7 infected in erythrocytes after 96 hrs by [3H]hypoxanthine incorporation assay; type: functional, organism-based
Plasmodium falciparum [14] = test: Antimalarial activity against chloroquine-sensitive Plasmodium falciparum FCM29 infected in erythrocytes after 48 hrs by [3H]hypoxanthine incorporation assay; type: functional, organism-based
Plasmodium falciparum [15] = test: Antimalarial activity against Plasmodium falciparum 3D7; type: functional, organism-based
Plasmodium falciparum [16] = test: Antimalarial activity against Plasmodium falciparum NF54; type: functional, organism-based

| IC50 (Plasmodium falciparum [15]) [µM] | IC50 (Plasmodium falciparum [16]) [µM] | Compound | IC50 (Plasmodium falciparum [3]) [µM] | IC50 (Plasmodium falciparum [4]) [µM] | IC50 (Plasmodium falciparum [5]) [µM] | IC50 (Plasmodium falciparum [6]) [µM] | IC50 [8] [µM] | IC50 (Plasmodium falciparum [10]) [µM] | IC50 (Plasmodium falciparum [12]) [µM] | IC50 (Plasmodium falciparum [13]) [µM] | IC50 (Plasmodium falciparum [14]) [µM] | further results |
| --- | --- | --- | --- | --- | --- | --- | --- | --- | --- | --- | --- | --- |
| – | – | O=C(O)c1cn(C2CC2)c2cc(N3CCNCC3)c(F)cc2c1=O [CIPROFLOXACIN] | 14.1 | 41.3 | 119 | 45.5 | > 40 | 45.9 | 80.8 | 10.1 | 45.6 | selectivity ratio at 48 h [1]: > 0.3; IC50 (Plasmodium falciparum [2]): 51.6 µM; selectivity ratio [7]: > 0.8; IC50 (Plasmodium falciparum [9]): 74.8 µM; IC50 (Plasmodium falciparum [11]): 74.3 µM |
| – | – | C[C@H]1c2cccc(O)c2C(=O)C2=C(O)[C@]3(O)C(=O)C(C(N)=O)=C(O)[C@@H](N(C)C)[C@@H]3[C@@H](O)[C@@H]21 [DOXYCYCLINE] | 1.2 | 8.4 | 10.7 | 12.9 | – | 12 | 14.9 | 1.7 | 11.1 | IC50 (Plasmodium falciparum [2]; read-out: IC50): 9.1 µM; IC50 (Plasmodium falciparum [9]; read-out: IC50): 13.3 µM; IC50 (Plasmodium falciparum [11]; read-out: IC50): 9.7 µM |
| – | – | C=C[C@H]1CN2CC[C@H]1C[C@H]2[C@H](O)c1ccnc2ccc(OC)cc12 [QUININE] | 456 | 0.543 | 520 | 0.571 | – | 186 | 0.0067 | – | 0.0058 | IC50 (Plasmodium falciparum [2]; read-out: IC50): 0.428 µM; IC50 (Plasmodium falciparum [11]; read-out: IC50): 0.65 µM |
| ≥ 10 | ≥ 10 | COc1c(N2CCNC(C)C2)c(F)cc2c(=O)c(C(=O)O)cn(C3CC3)c12 (stereo unspecified) [GATIFLOXACIN] | – | – | – | – | – | – | – | – | – | – |
| – | – | C[C@H]1[C@H](OC(=O)CCC(=O)O)O[C@@H]2O[C@@]3(C)CC[C@H]4[C@H](C)CC[C@@H]1[C@@]24OO3 [ARTESUNATE] | 2.1 | – | 2.4 | 0.002 | – | 1.7 | 0.0018 | 2 | – | – |
| – | – | CCN(CC)CCCC(C)Nc1ccnc2cc(Cl)ccc12 (stereo unspecified) [CHLOROQUINE] | – | – | – | – | 3.46 | – | – | – | – | – |
| ≥ 10 | ≥ 10 | COc1c(N2C[C@@H]3CCCN[C@@H]3C2)c(F)cc2c(=O)c(C(=O)O)cn(C3CC3)c12 [MOXIFLOXACIN] | – | – | – | – | – | – | – | – | – | – |
| ≥ 10 | ≥ 10 | Cc1c(F)c(N2CCNC(C)C2)cc2c1c(=O)c(C(=O)O)cn2C1CC1 (stereo unspecified) [GREPAFLOXACIN] | – | – | – | – | – | – | – | – | – | – |

| Compound | IC50 (Plasmodium falciparum [15]) [µM] | IC50 (Plasmodium falciparum [16]) [µM] | IC50 (Plasmodium falciparum [3]) [µM] | IC50 (Plasmodium falciparum [4]) [µM] | IC50 (Plasmodium falciparum [5]) [µM] | IC50 (Plasmodium falciparum [6]) [µM] | IC50 [8] [µM] | IC50 (Plasmodium falciparum [10]) [µM] | IC50 (Plasmodium falciparum [12]) [µM] | IC50 (Plasmodium falciparum [13]) [µM] | IC50 (Plasmodium falciparum [14]) [µM] | further results |
| --- | --- | --- | --- | --- | --- | --- | --- | --- | --- | --- | --- | --- |
| CCOC(=O)c1cn(C2CC2)c2cc(N3CCNCC3)c(F)cc2c1=O [CIPROFLOXACIN ETHYL ESTER] | ≥ 10 | ≥ 10 | 3.1 | – | 3.9 | – | > 40 | 3.1 | – | 1.6 | – | selectivity ratio at 48 h [1]: > 10.2; selectivity ratio [7]: > 12.9 |
